In brackets after ≈: the same amount, converted by molar mass.
These molecules were tested on S aureus A798 (assay: Minimal inhibitory concentration (MIC), microdilution method in cation-adjusted Mueller-Hinton Broth following NCCLS guidelines). Conditions: pH of test medium 7.2-7.3.
Format: cell-based
How it was run: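 MICs (mg/l) came from NCCLS-guided microdilution, using cation-adjusted Mueller-Hinton medium adjusted to pH 7.2-7.3.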
Work on `COc1ccc2nccc(N3CC[C@@H](NC[C@@H]4CN(c5ccc6c(c5)NC(=O)CS6)C(=O)O4)C3)c2n1` [Example 71, 6-((R)-5-{[(R)-1-(6-Methoxy-[1,5]naphthyridin-4-yl)-pyrrolidin-3-ylamino]-methyl}-2-oxo-oxazolidin-3-yl)-4H-benzo[1,4]thiazin-3-one] yielded an MIC of no more than 0.031 µg/mL. Molecule `COc1ccc2nccc(N3CCN(CC4CN(c5ccc(C(F)(F)F)cn5)C(=O)O4)CC3)c2n1` (racemic) [Example 44, (RS)-5-[4-(6-Methoxy-[1,5]naphthyridin-4-yl)-piperazin-1-ylmethyl]-3-(5-trifluoromethyl-pyridin-2-yl)-oxazolidin-2-one] has an MIC of 0.5 µg/mL (≈ 1.02 µM). With `COc1ccc2nccc(N3C[C@@H]4C[C@H]3CN4C[C@@H]3CN(c4ccc5c(c4)NC(=O)CO5)C(=O)O3)c2n1` [Example 151, 6-{(R)-5-[(1S,4S)-5-(6-Methoxy-[1,5]naphthyridin-4-yl)-2,5-diaza-bicyclo[2.2.1]hept-2-ylmethyl]-2-oxo-oxazolidin-3-yl}-4H-benzo[1,4]oxazin-3-one] the MIC was 0.063 µg/mL (≈ 0.125 µM). Work on `COc1ccc2nccc(N3CC[C@@H](NC(=O)[C@@H]4CN(c5ccc6c(c5)OCCO6)C(=O)O4)C3)c2n1` [Example 61, (S)-3-(2,3-Dihydro-benzo[1,4]dioxin-6-yl)-2-oxo-oxazolidine-5-carboxylic acid [(R)-1-(6-methoxy-[1,5]naphthyridin-4-yl)-pyrrolidin-3-yl]-amide] yielded an MIC of no more than 0.031 µg/mL. Work on `O=C1CSc2ccc(N3C[C@@H](CNC4CCN(c5ccnc6ccc(F)cc56)CC4)OC3=O)cc2N1` [Example 179, 6-((R)-5-{[1-(6-Fluoro-quinolin-4-yl)-piperidin-4-ylamino]-methyl}-2-oxo-oxazolidin-3-yl)-4H-benzo[1,4]thiazin-3-one] yielded an MIC of no more than 0.031 µg/mL. With `COc1ccc2nccc(N3CC[C@@H]4CN(C(=O)[C@@H]5CN(c6ccc7c(c6)OCCO7)C(=O)O5)C[C@@H]43)c2n1` (mixture of isomers) [Example 92, (S)-3-(2,3-Dihydro-benzo[1,4]dioxin-6-yl)-5-[(3aR*,6aR*)-1-(6-methoxy-[1,5]naphthyridin-4-yl)-hexahydro-pyrrolo[3,4-b]pyrrole-5-carbonyl]-oxazolidin-2-one] the MIC was 0.25 µg/mL. `COc1ccc2nccc(N3CCN(C[C@@H]4CN(c5ccc(F)cc5)C(=O)O4)CC3)c2n1` [Example 15, (R)-3-(4-Fluoro-phenyl)-5-[4-(6-methoxy-[1,5]naphthyridin-4-yl)-piperazin-1-ylmethyl]-oxazolidin-2-one] showed an MIC of 0.25 µg/mL (≈ 0.571 µM). `COc1ccc2nccc(N3CC(N(C)C[C@@H]4CN(c5ccc(C)c(Br)c5)C(=O)O4)C3)c2n1` [Example 142, (R)-3-(3-Bromo-4-methyl-phenyl)-5-({[1-(6-methoxy-[1,5]naphthyridin-4-yl)-azetidin-3-yl]-methyl-amino}-methyl)-oxazolidin-2-one] showed an MIC of no more than 0.031 µg/mL. Work on `CCOc1ccc(N2C[C@@H](CNC3CN(c4ccnc5ccc(OC)nc45)C3)OC2=O)cc1` [Example 175, (R)-3-(4-Ethoxy-phenyl)-5-{[1-(6-methoxy-[1,5]naphthyridin-4-yl)-azetidin-3-ylamino]-methyl}-oxazolidin-2-one] yielded an MIC of no more than 0.031 µg/mL. For `O=C1CSc2ccc(N3C[C@@H](CNC4CN(c5ccnc6ccc(F)cc56)C4)OC3=O)cc2N1` [Example 160, 6-((R)-5-{[1-(6-Fluoro-quinolin-4-yl)-azetidin-3-ylamino]-methyl}-2-oxo-oxazolidin-3-yl)-4H-benzo[1,4]thiazin-3-one], the MIC was no more than 0.031 µg/mL. `COc1ccc2nccc(N3CC[C@@H](CNC[C@@H]4CN(c5ccc6c(c5)NC(=O)CO6)C(=O)O4)C3)c2n1` [Example 168, 6-[(R)-5-({[(S)-1-(6-Methoxy-[1,5]naphthyridin-4-yl)-pyrrolidin-3-ylmethyl]-amino}-methyl)-2-oxo-oxazolidin-3-yl]-4H-benzo[1,4]oxazin-3-one] was tested, and the MIC was no more than 0.031 µg/mL. Molecule `COc1ccc2nccc(N3CCN(C[C@@H]4CN(c5ccc(OC)c(Cl)c5)C(=O)O4)CC3)c2n1` [Example 28, (R)-3-(3-Chloro-4-methoxy-phenyl)-5-[4-(6-methoxy-[1,5]naphthyridin-4-yl)-piperazin-1-ylmethyl]-oxazolidin-2-one] has an MIC of 1 µg/mL (≈ 2.07 µM). In the case of `CCOC(=O)[C@@H]1CN(c2ccnc3ccc(OC)nc23)C[C@H]1NC[C@H]1CN(c2ccc3c(c2)NC(=O)CS3)C(=O)O1` (relative stereo) [Example 73, (3R*,4S*)-1-(6-Methoxy-[1,5]naphthyridin-4-yl)-4-{[(S)-2-oxo-3-(3-oxo-3,4-dihydro-2H-benzo[1,4]thiazin-6-yl)-oxazolidin-5-ylmethyl]amino}-pyrrolidine-3-carboxylic acid ethyl ester], the MIC was no more than 0.031 µg/mL. With `COc1ccc2nccc(N3CCN(C[C@H]4CN(c5ccc6c(c5)NC(=O)CS6)C(=O)O4)CC3)c2n1` [Example 39, 6-{(S)-5-[4-(6-Methoxy-[1,5]naphthyridin-4-yl)-piperazin-1-ylmethyl]-2-oxo-oxazolidin-3-yl}-4H-benzo[1,4]thiazin-3-one] the MIC was no more than 0.031 µg/mL. For `COc1ccc2nccc(N3CC(NC[C@H]4CN(c5ccc6c(c5)NC(=O)CS6)C(=O)O4)C3)c2n1` [Example 57, 6-((S)-5-{[1-(6-Methoxy-[1,5]naphthyridin-4-yl)-azetidin-3-ylamino]-methyl}-2-oxo-oxazolidin-3-yl)-4H-benzo[1,4]thiazin-3-one], the MIC was no more than 0.031 µg/mL. `COc1ccc2ncnc(N3CCN(CC4CN(c5ccc6c(c5)OCCO6)C(=O)O4)CC3)c2c1` (racemic) [Example 6, (RS)-3-(2,3-Dihydro-benzo[1,4]dioxin-6-yl)-5-[4-(6-methoxy-quinazolin-4-yl)-piperazin-1-ylmethyl]-oxazolidin-2-one] was tested, and the MIC was no more than 0.031 µg/mL. In the case of `COc1ccc2ncc(F)c(N3CC[C@H](NC[C@@H]4CN(c5ccc6c(c5)OCCO6)C(=O)O4)C3)c2n1` [Example 66, (R)-3-(2,3-Dihydro-benzo[1,4]dioxin-6-yl)-5-{[(5)-1-(3-fluoro-6-methoxy-[1,5]naphthyridin-4-yl)-pyrrolidin-3-ylamino]-methyl}-oxazolidin-2-one], the “MIC S aureus A798” value was “<=0.031 mg/l”. With `COc1ccc(N2C[C@@H](CN[C@H]3CCN(c4c(F)cnc5ccc(OC)nc45)C3)OC2=O)cc1` [Example 169, (R)-5-{[(S)-1-(3-Fluoro-6-methoxy-[1,5]naphthyridin-4-yl)-pyrrolidin-3-ylamino]-methyl}-3-(4-methoxy-phenyl)-oxazolidin-2-one] the MIC was 0.5 µg/mL (≈ 1.07 µM). In the case of `COc1ccc2nccc(N3CCN(C[C@@H]4CN(c5ccc(F)c(C)c5)C(=O)O4)CC3)c2n1` [Example 30, (R)-3-(4-Fluoro-3-methyl-phenyl)-5-[4-(6-methoxy-[1,5]naphthyridin-4-yl)-piperazin-1-ylmethyl]-oxazolidin-2-one], the MIC was 0.125 µg/mL (≈ 0.277 µM). `CCc1ccc(N2C[C@@H](CN3CCN(c4ccnc5ccc(OC)nc45)CC3)OC2=O)cc1` [Example 26, (R)-3-(4-Ethyl-phenyl)-5-[4-(6-methoxy-[1,5]naphthyridin-4-yl)-piperazin-1-ylmethyl]-oxazolidin-2-one] gave an MIC of no more than 0.031 µg/mL. With `COc1ccc2nccc(N3CC[C@H](CNC[C@@H]4CN(c5ccc6c(c5)NC(=O)CO6)C(=O)O4)C3)c2n1` [Example 167, 6-[(R)-5-({[(R)-1-(6-Methoxy-[1,5]naphthyridin-4-yl)-pyrrolidin-3-ylmethyl]amino}-methyl)-2-oxo-oxazolidin-3-yl]-4H-benzo[1,4]oxazin-3-one] the MIC was no more than 0.031 µg/mL. `COc1ccc2nccc(N3CCN(C[C@@H]4CN(c5ccc(OC)c(OC)c5)C(=O)O4)CC3)c2n1` [Example 14, (R)-3-(3,4-Dimethoxy-phenyl)-5-[4-(6-methoxy-[1,5]naphthyridin-4-yl)-piperazin-1-ylmethyl]-oxazolidin-2-one] was tested, and the MIC was 2 µg/mL (≈ 4.17 µM). With `COc1ccc2nccc(C3(O)CCN(C[C@@H]4CN(c5ccc6c(c5)NC(=O)CS6)C(=O)O4)CC3)c2c1` [Example 125, 6-{(R)-5-[4-Hydroxy-4-(6-methoxy-quinolin-4-yl)-piperidin-1-ylmethyl]-2-oxo-oxazolidin-3-yl}-4H-benzo[1,4]thiazin-3-one] the MIC was no more than 0.031 µg/mL. For `COc1ccc2nccc(N3CC(N(C)C[C@@H]4CN(c5ccc(Br)c(F)c5)C(=O)O4)C3)c2n1` [Example 141, (R)-3-(4-Bromo-3-fluoro-phenyl)-5-({[1-(6-methoxy-[1,5]naphthyridin-4-yl)-azetidin-3-yl]-methyl-amino}-methyl)-oxazolidin-2-one], the MIC was no more than 0.031 µg/mL. `COc1ccc2ncc(F)c(N3CC[C@H](NC[C@@H]4CN(c5ccc6c(c5)NC(=O)CS6)C(=O)O4)C3)c2n1` [Example 65, 6-((R)-5-{[(S)-1-(3-Fluoro-6-methoxy-[1,5]naphthyridin-4-yl)-pyrrolidin-3-ylamino]-methyl}-2-oxo-oxazolidin-3-yl)-4H-benzo[1,4]thiazin-3-one] was tested, and the MIC was no more than 0.031 µg/mL. In the case of `CCCc1ccc(N2C[C@@H](CN3CCN(c4ccnc5ccc(OC)nc45)CC3)OC2=O)cc1` [Example 25, (R)-5-[4-(6-Methoxy-[1,5]naphthyridin-4-yl)-piperazin-1-ylmethyl]-3-(4-propyl-phenyl)-oxazolidin-2-one], the MIC was no more than 0.031 µg/mL. In the case of `N#Cc1ccc2nccc(N3CC[C@@H](NC[C@@H]4CN(c5ccc6c(c5)NC(=O)CS6)C(=O)O4)C3)c2c1` [Example 178, 4-((R)-3-{[(R)-2-oxo-3-(3-oxo-3,4-dihydro-2H-benzo[1,4]thiazin-6-yl)-oxazolidin-5-ylmethyl]-amino}-pyrrolidin-1-yl)-quinoline-6-carbonitrile], the MIC was 0.063 µg/mL (≈ 0.126 µM). Molecule `COc1ccc2nccc(N3CC(N(C)C[C@@H]4CN(c5ccccc5)C(=O)O4)C3)c2n1` [Example 133, (R)-5-({[1-(6-Methoxy-[1,5]naphthyridin-4-yl)-azetidin-3-yl]-methyl-amino}-methyl)-3-phenyl-oxazolidin-2-one] has an MIC of 2 µg/mL (≈ 4.77 µM). In the case of `COc1ccc2nccc(N3CC[C@H](NC[C@@H]4CN(c5ccc6c(c5)NC(=O)CS6)C(=O)O4)C3)c2c1` [Example 172, 6-((R)-5-{[(S)-1-(6-Methoxy-quinolin-4-yl)-pyrrolidin-3-ylamino]-methyl}-2-oxo-oxazolidin-3-yl)-4H-benzo[1,4]thiazin-3-one], the MIC was no more than 0.031 µg/mL. For `COc1ccc2nccc(N3CC4C(C3)C4NC[C@@H]3CN(c4ccc5c(c4)NC(=O)CS5)C(=O)O3)c2n1` (stereo partly drawn) [Example 89, 6-((R)-5-{[(1α,5α,6α)-3-(6-Methoxy-[1,5]naphthyridin-4-yl)-3-aza-bicyclo[3.1.0]hex-6-ylamino]-methyl}-2-oxo-oxazolidin-3-yl)-4H-benzo[1,4]thiazin-3-one], the “MIC S aureus A798” value was “<=0.031 mg/l”.
